# Test system: S. Haemolyticus
# Assay: Growth inhibition assay in 96-well plate, optical density of S. Haemolyticus
# Format: cell-based, Staphylococcus haemolyticus
# Method: The efficacy of 2-butyl octanol for selectively promoting, inhibiting, reducing, and/or treating bacterial growth was evaluated. Particularly, the efficacy of 2-butyl octanol for selectively promoting, inhibiting, reducing, and/or treating bacterial growth of Corynebacterium and Staphylococcus was evaluated. To evaluate the efficacy, an active solution was prepared by emulsifying 2-butyl octanol with a nonionic surfactant, namely, Polysorbate 80. The active solution included the 2-butyl octanol and the Polysorbate 80 in a ratio of about 83:17. Both positive controls (including no active solution) and negative controls (including no bacteria) were also prepared.
# A 96-well plate was utilized to evaluate the growth of the respective bacteria at varying dilutions. Each of the wells of a 96-well plate was aseptically filled with about 100 μL of Tryptic Soy Broth (TSB). In the first well of each row, about 100 μL of either the active solution (including the 2-butyl octanol and Polysorbate 80) or the desired solvent for the respective positive and negative controls was added to thereby provide a total of about 200 μL in the first well of the each respective row. A multi-channel pipette was then utilized to prepare a two-fold dilution in each column. Specifically, a multi-channel pipette set to about 100 μL was utilized to mix and transfer about 100 μL of the 200 μL from the wells of the first column to the respective wells of a subsequent column. This was repeated for each of the remaining eleven columns. About 100 μL of the twelfth column was removed, thereby leaving about 100 μL in each of the 96 wells. […] Specifically, a phosphate buffered saline (PBS) was utilized for the negative control. About 100 μL of the respective bacteria adjusted to 0.1 optical density (OD) bacteria was added to all other wells. The well plate was then incubated overnight at about 37° C. in a growth inhibition assay machine. Measurements were taken at about one hour increments.
smiles,measurement,setting,value
"CCCCCCC(CO)CCCC (stereo not shown) [2-butyl octanol, 2-butyl-1-octanol]",Measured Optical Density of S. Haemolyticus,"0.02% 2-Butyl Octanol, 1 Hour",0.017
same,Measured Optical Density of S. Haemolyticus,"0.02% 2-Butyl Octanol, 2 Hour",0.129
same,Measured Optical Density of S. Haemolyticus,"0.02% 2-Butyl Octanol, 3 Hour",0.203
same,Measured Optical Density of S. Haemolyticus,"0.02% 2-Butyl Octanol, 4 Hour",0.218
same,Measured Optical Density of S. Haemolyticus,"0.02% 2-Butyl Octanol, 5 Hour",0.272
same,Measured Optical Density of S. Haemolyticus,"0.02% 2-Butyl Octanol, 6 Hour",0.34
same,Measured Optical Density of S. Haemolyticus,"0.02% 2-Butyl Octanol, 7 Hour",0.426
same,Measured Optical Density of S. Haemolyticus,"0.02% 2-Butyl Octanol, 8 Hour",0.503
same,Measured Optical Density of S. Haemolyticus,"0.02% 2-Butyl Octanol, 9 Hour",0.558
same,Measured Optical Density of S. Haemolyticus,"0.02% 2-Butyl Octanol, 10 Hour",0.616
same,Measured Optical Density of S. Haemolyticus,"0.02% 2-Butyl Octanol, 11 Hour",0.649
same,Measured Optical Density of S. Haemolyticus,"0.02% 2-Butyl Octanol, 12 Hour",0.671
same,Measured Optical Density of S. Haemolyticus,"0.02% 2-Butyl Octanol, 13 Hour",0.702
same,Measured Optical Density of S. Haemolyticus,"0.02% 2-Butyl Octanol, 14 Hour",0.719
same,Measured Optical Density of S. Haemolyticus,"0.02% 2-Butyl Octanol, 15 Hour",0.724
same,Measured Optical Density of S. Haemolyticus,"0.02% 2-Butyl Octanol, 16 Hour",0.735
same,Measured Optical Density of S. Haemolyticus,"0.02% 2-Butyl Octanol, 17 Hour",0.748
same,Measured Optical Density of S. Haemolyticus,"0.02% 2-Butyl Octanol, 18 Hour",0.751
same,Measured Optical Density of S. Haemolyticus,"0.04% 2-Butyl Octanol, 1 Hour",0.026
same,Measured Optical Density of S. Haemolyticus,"0.04% 2-Butyl Octanol, 2 Hour",0.153
same,Measured Optical Density of S. Haemolyticus,"0.04% 2-Butyl Octanol, 3 Hour",0.237
same,Measured Optical Density of S. Haemolyticus,"0.04% 2-Butyl Octanol, 4 Hour",0.247
same,Measured Optical Density of S. Haemolyticus,"0.04% 2-Butyl Octanol, 5 Hour",0.286
same,Measured Optical Density of S. Haemolyticus,"0.04% 2-Butyl Octanol, 6 Hour",0.328
same,Measured Optical Density of S. Haemolyticus,"0.04% 2-Butyl Octanol, 7 Hour",0.389
same,Measured Optical Density of S. Haemolyticus,"0.04% 2-Butyl Octanol, 8 Hour",0.453
same,Measured Optical Density of S. Haemolyticus,"0.04% 2-Butyl Octanol, 9 Hour",0.514
same,Measured Optical Density of S. Haemolyticus,"0.04% 2-Butyl Octanol, 10 Hour",0.56
same,Measured Optical Density of S. Haemolyticus,"0.04% 2-Butyl Octanol, 11 Hour",0.596
same,Measured Optical Density of S. Haemolyticus,"0.04% 2-Butyl Octanol, 12 Hour",0.619
same,Measured Optical Density of S. Haemolyticus,"0.04% 2-Butyl Octanol, 13 Hour",0.624
same,Measured Optical Density of S. Haemolyticus,"0.04% 2-Butyl Octanol, 14 Hour",0.635
same,Measured Optical Density of S. Haemolyticus,"0.04% 2-Butyl Octanol, 15 Hour",0.656
same,Measured Optical Density of S. Haemolyticus,"0.04% 2-Butyl Octanol, 16 Hour",0.657
same,Measured Optical Density of S. Haemolyticus,"0.04% 2-Butyl Octanol, 17 Hour",0.671
same,Measured Optical Density of S. Haemolyticus,"0.04% 2-Butyl Octanol, 18 Hour",0.676
same,Measured Optical Density of S. Haemolyticus,"0.08% 2-Butyl Octanol, 1 Hour",0.039
same,Measured Optical Density of S. Haemolyticus,"0.08% 2-Butyl Octanol, 2 Hour",0.205
same,Measured Optical Density of S. Haemolyticus,"0.08% 2-Butyl Octanol, 3 Hour",0.308
same,Measured Optical Density of S. Haemolyticus,"0.08% 2-Butyl Octanol, 4 Hour",0.317
same,Measured Optical Density of S. Haemolyticus,"0.08% 2-Butyl Octanol, 5 Hour",0.355
same,Measured Optical Density of S. Haemolyticus,"0.08% 2-Butyl Octanol, 6 Hour",0.401
same,Measured Optical Density of S. Haemolyticus,"0.08% 2-Butyl Octanol, 7 Hour",0.462
same,Measured Optical Density of S. Haemolyticus,"0.08% 2-Butyl Octanol, 8 Hour",0.53
same,Measured Optical Density of S. Haemolyticus,"0.08% 2-Butyl Octanol, 9 Hour",0.58
same,Measured Optical Density of S. Haemolyticus,"0.08% 2-Butyl Octanol, 10 Hour",0.614
same,Measured Optical Density of S. Haemolyticus,"0.08% 2-Butyl Octanol, 11 Hour",0.637
same,Measured Optical Density of S. Haemolyticus,"0.08% 2-Butyl Octanol, 12 Hour",0.647
same,Measured Optical Density of S. Haemolyticus,"0.08% 2-Butyl Octanol, 13 Hour",0.673
same,Measured Optical Density of S. Haemolyticus,"0.08% 2-Butyl Octanol, 14 Hour",0.683
same,Measured Optical Density of S. Haemolyticus,"0.08% 2-Butyl Octanol, 15 Hour",0.693
same,Measured Optical Density of S. Haemolyticus,"0.08% 2-Butyl Octanol, 16 Hour",0.708
same,Measured Optical Density of S. Haemolyticus,"0.08% 2-Butyl Octanol, 17 Hour",0.733
same,Measured Optical Density of S. Haemolyticus,"0.08% 2-Butyl Octanol, 18 Hour",0.744
same,Measured Optical Density of S. Haemolyticus,"0.16% 2-Butyl Octanol, 1 Hour",0.049
same,Measured Optical Density of S. Haemolyticus,"0.16% 2-Butyl Octanol, 2 Hour",0.175
same,Measured Optical Density of S. Haemolyticus,"0.16% 2-Butyl Octanol, 3 Hour",0.26
same,Measured Optical Density of S. Haemolyticus,"0.16% 2-Butyl Octanol, 4 Hour",0.285
same,Measured Optical Density of S. Haemolyticus,"0.16% 2-Butyl Octanol, 5 Hour",0.326
same,Measured Optical Density of S. Haemolyticus,"0.16% 2-Butyl Octanol, 6 Hour",0.39
same,Measured Optical Density of S. Haemolyticus,"0.16% 2-Butyl Octanol, 7 Hour",0.464
same,Measured Optical Density of S. Haemolyticus,"0.16% 2-Butyl Octanol, 8 Hour",0.524
same,Measured Optical Density of S. Haemolyticus,"0.16% 2-Butyl Octanol, 9 Hour",0.579
same,Measured Optical Density of S. Haemolyticus,"0.16% 2-Butyl Octanol, 10 Hour",0.627
same,Measured Optical Density of S. Haemolyticus,"0.16% 2-Butyl Octanol, 11 Hour",0.66
same,Measured Optical Density of S. Haemolyticus,"0.16% 2-Butyl Octanol, 12 Hour",0.684
same,Measured Optical Density of S. Haemolyticus,"0.16% 2-Butyl Octanol, 13 Hour",0.71
same,Measured Optical Density of S. Haemolyticus,"0.16% 2-Butyl Octanol, 14 Hour",0.719
same,Measured Optical Density of S. Haemolyticus,"0.16% 2-Butyl Octanol, 15 Hour",0.724
same,Measured Optical Density of S. Haemolyticus,"0.16% 2-Butyl Octanol, 16 Hour",0.74
same,Measured Optical Density of S. Haemolyticus,"0.16% 2-Butyl Octanol, 17 Hour",0.756
same,Measured Optical Density of S. Haemolyticus,"0.16% 2-Butyl Octanol, 18 Hour",0.77
same,growth of S. hominis,2-butyl octanol about 0.02 weight % to about 5.2 weight %,did not inhibit the growth of and/or promoted the growth of
same,Measured Optical Density of S. Haemolyticus,"5.2% 2-Butyl Octanol, 1 Hour",0.198
same,Measured Optical Density of S. Haemolyticus,"5.2% 2-Butyl Octanol, 2 Hour",0.254
same,Measured Optical Density of S. Haemolyticus,"5.2% 2-Butyl Octanol, 3 Hour",0.345
same,Measured Optical Density of S. Haemolyticus,"5.2% 2-Butyl Octanol, 4 Hour",0.383
same,Measured Optical Density of S. Haemolyticus,"5.2% 2-Butyl Octanol, 5 Hour",0.396
same,Measured Optical Density of S. Haemolyticus,"5.2% 2-Butyl Octanol, 6 Hour",0.384
same,Measured Optical Density of S. Haemolyticus,"5.2% 2-Butyl Octanol, 7 Hour",0.403
same,Measured Optical Density of S. Haemolyticus,"5.2% 2-Butyl Octanol, 8 Hour",0.477
same,Measured Optical Density of S. Haemolyticus,"5.2% 2-Butyl Octanol, 9 Hour",0.549
same,Measured Optical Density of S. Haemolyticus,"5.2% 2-Butyl Octanol, 10 Hour",0.603
same,Measured Optical Density of S. Haemolyticus,"5.2% 2-Butyl Octanol, 11 Hour",0.622
same,Measured Optical Density of S. Haemolyticus,"5.2% 2-Butyl Octanol, 12 Hour",0.639
same,Measured Optical Density of S. Haemolyticus,"5.2% 2-Butyl Octanol, 13 Hour",0.654
same,Measured Optical Density of S. Haemolyticus,"5.2% 2-Butyl Octanol, 14 Hour",0.681
same,Measured Optical Density of S. Haemolyticus,"5.2% 2-Butyl Octanol, 15 Hour",0.699
same,Measured Optical Density of S. Haemolyticus,"5.2% 2-Butyl Octanol, 16 Hour",0.722
same,Measured Optical Density of S. Haemolyticus,"5.2% 2-Butyl Octanol, 17 Hour",0.742
same,Measured Optical Density of S. Haemolyticus,"5.2% 2-Butyl Octanol, 18 Hour",0.752

# Reference: US12194124B2, “Personal care compositions for treating odor causing bacteria and methods for the same” (Colgate-Palmolive Company, priority 2019, dated 2025)
